Columns and labels:
[1] = tested on: PrRP knockout mice and wild-type mice; test: Survival of PrRP knockout and wild-type mice after MPTP administration; assay type: in vivo, mouse; conditions: MPTP i.p. every 2 hours 4 times at 20 μg/kg, five days after administration
Method: MPTP (methyl-phenyl-tetrahydropyridine) known to produce animal models of Parkinson's disease was intraperitoneally administered to PrRP knockout mice and wild-type mice every 2 hours 4 times at the dose of […]. Five days after the administration, 11 out of 21 wild-type mice survived with a survival rate of 52%, whereas 10 out of 10 PrRP knockout mice survived, meaning that there was no dead animal and the survival rate was 100%.

nigral dopamine cells [2] = test: Number of tyrosine hydroxylase positive (dopamine) cells in the substantia nigra after MPTP, PrRP knockout vs wild-type mice; assay type: in vivo, mouse; conditions: FIG. 1
Excerpt: It is known that MPTP (methyl-phenyl-tetrahydropyridine) causes degenerative loss of nigral dopamine cells to induce Parkinson's disease. Thus, the brains were excised from PrRP knockout mice and wild-type mice, to which MPTP or saline for control was given as in EXAMPLE 1, and then immersed and fixed in a 0.07M phosphate buffer (pH 7.4) containing 5% acrolein (Tokyo Chemical Industry). The brains were then immersed in 30% sucrose-containing phosphate buffered saline (PBS) for more than 2 days. The free-floating technique was used for immunohistochemistry. A frozen frontal section in 40 μm thickness of the brain was prepared using a cryomicrotome. Next, the section was soaked in and washed with PBS for water immersion, then treated with 0.5% sodium metaperiodate-containing PBS (20 minutes) to inactivate the endogenous peroxidase activity, and the aldehyde group was reduced by treatment with 1% sodium borohydride-containing PBS (20 minutes). In addition, non-specific reactions were blocked by treatment with 1% normal horse serum and 0.4% Triton X-100-containing BPS (TNBS) (an hour). […] The number of tyrosine hydroxylase positive cells, which are dopamine cells in the substantia nigra, was counted under an optical microscope.

[3] = Motor activity assessed with a rotarod after MPTP, PrRP knockout vs wild-type mice; assay type: in vivo, mouse; conditions: FIG. 2
Method: In order to examine the relation of Parkinson's disease to PrRP, decrement of motor activities known as symptoms of Parkinson's disease induced by administration of MPTP was compared between PrRP knockout mice and wild-type mice. The motor activity of each mouse was assessed with a rotarod. […] Turning to the PrRP knockout mice, there was no difference between the group administered with MPTP and the group administered with saline for control, and the motor activity was normal (FIG. 2). These phenomena reveal that onset of Parkinson's disease induced by MPTP was suppressed in the PrRP knockout mice.

[4] = Catecholamine level in the striatum after MPTP, PrRP knockout vs wild-type mice; assay type: in vivo, mouse; conditions: seven days after final administration, FIG. 3
Method: MPTP or saline for control was administered to PrRP knockout mice and wild-type mice in a manner similar to EXAMPLE 1. Seven days after the final administration, the striatal sites were immediately excised from the brains, frozen in liquid nitrogen and then stored at −80° C. Catecholamines such as Dopamine (DA), DOPAK, HVA, etc. were measured as follows. First, the excised corpus striata were homogenized in 0.2M perchloric acid containing 100 ng/mL isoproterenol (Sigma), centrifuged at 15,000 g for 20 minutes at 0° C., and filtered through a 0.22 μm filter. The final solution, 10 μL, was separated under the conditions at flow rate of 0.5 mL/min in 83% 0.1 M acetic acid-citrate buffer (pH 3.5)/17% methanol solution containing 190 mg/L SDS and 5 mg/L EDTA-2Na through EICOMPAK SC-50DS column (3.0 mm×150 mm, EICOM), and determined by electrochemical detection.

[5] = tested on: striatal dopamine nerve fibers; test: TH-positive fiber density in the striatum, MPTP after intraventricular antibody; conditions: C57BL/6J mice given normal mouse IgG i.c.v., then MPTP 20 mg/kg i.p. 4 times every 2 hours; P<0.05; FIG. 5
Excerpt: (§1) Male C57BL/6J mouse (CLEA Japan) of 14 weeks old was fixed on a brain stereotaxic apparatus under anesthesia with pentobarbital (Dainippon Pharmaceutical) and the skull surface was exposed. After the skull was dried with a drier, the coordinates of bregma were located to determine the coordinates of the left lateral ventricle (AP: −0.2 mm, lateral: +1.0 mm, depth: +2.5 mm from bregma). After a burr hole was made with a dental drill on the skull across the bregma from the location of the left lateral ventricle, anchor screws (EICOM) were implanted to fix a dental cement (GC Corp., Unifast II). A hole was made with a dental drill (Urawa Corp., Model: UC100) for guide cannulation to vertically insert into the skull on the left lateral ventricle, and a guide cannula (EICOM) was eased down toward the ventricle. After leakage of cerebrospinal fluids was confirmed, the guide cannula was fixed on the coordinates determined. The dental cement was used for fixation and applied until the anchor screws were embedded. After it was confirmed that the cement was dried, the mouse was released from the stereotaxic apparatus. […]
(§2) The antibody solution was diluted in Centriprep (Millipore). Absorbance (280 nm) was measured to determine the antibody concentration, and the antibody was diluted in aseptic PBS (−) to 9.97 mg/mL. […]

nigral dopamine cells [6] = test: Number of TH-positive cells in the substantia nigra pars compacta, MPTP after intraventricular antibody; conditions: C57BL/6J mice given normal mouse IgG i.c.v., then MPTP 20 mg/kg i.p. 4 times every 2 hours; P<0.001; FIG. 4
Excerpt: as §1, §2

In the case of `CN1CC=C(c2ccccc2)CC1` [MPTP], the survival rate ([1]; PrRP knockout mice, 10 out of 10 survived) is reported as 100%, the survival rate ([1]; wild-type mice, 11 out of 21 survived) is reported as 52% and the “decrease in number of tyrosine hydroxylase positive cells in the substantia nigra, MPTP group vs saline group” value (nigral dopamine cells [2]; PrRP knockout mice, no significant change) is reported as “about 10%”. The “decrease in number of tyrosine hydroxylase positive cells in the substantia nigra, MPTP group vs saline group” value (nigral dopamine cells [2]; wild-type mice, significant) was “about 60%”, the “motor activity (rotarod), MPTP group vs saline group” value ([3]; PrRP knockout mice) was “no difference” and the “motor activity (rotarod), MPTP group vs saline group” value ([3]; wild-type mice) was “markedly decreased”. For the same molecule, the “striatal dopamine (DA), DOPAC and HVA levels after MPTP” value ([4]; PrRP knockout mice) was “the degree of the decrease was smaller”, the “striatal dopamine (DA), DOPAC and HVA levels after MPTP” value ([4]; wild-type mice) was “decreased markedly” and the “striatal dopamine nerve fibers (image analysis), vs saline group” value [5] was “significant decrease”. The “dopamine cells in the substantia nigra pars compacta, vs saline group” value (nigral dopamine cells [6]) was “significant decrease”.

From patent US20080254042A1, “Novel Use of Prrp and Receptor Thereof” (Takeda Pharmaceutical Company Limited, priority 2004, published 2008)
